In patent US20240417405A1, “Substituted Spiro Derivatives” (Janssen Pharmaceutica NV, priority 2021, published 2024):
Like-named read-outs stand apart in the source and are kept apart here.

Legend:
[1] = system: MOLM14 cells; assay: Proliferation assay, spheroid-like growth, MOLM14 (MLL-AF9 rearranged); format: cell-based, human; settings: 8 days, confluence as measure of spheroid size, read-out: spheroid assay_OneTime MOLM14 IC50
Summary of the method: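 MOLM14 (MLL-AF9) or KO-52 (MLL wildtype) cells were grown in ultra-low attachment round-bottom wells with compound (0.3% DMSO) for 8 days at 37 °C. Spheroid confluence was imaged live on day 8, normalized to DMSO and a high-dose reference/staurosporin control, and absolute IC50 fitted with variable slope.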

[2] = target: T1, menin/MLL (terbium chelate-labeled menin, FITC-MBM1 peptide) (Homo sapiens, UniProt O00255, T541A); assay: Menin/MLL homogenous time-resolved fluorescence (HTRF) assay; format: binding; settings: 30 min incubation
T1 construct: Menin (a.a 1-610-6xhis tag)
T1 sequence (O00255 with tags, fused parts or gaps T541A): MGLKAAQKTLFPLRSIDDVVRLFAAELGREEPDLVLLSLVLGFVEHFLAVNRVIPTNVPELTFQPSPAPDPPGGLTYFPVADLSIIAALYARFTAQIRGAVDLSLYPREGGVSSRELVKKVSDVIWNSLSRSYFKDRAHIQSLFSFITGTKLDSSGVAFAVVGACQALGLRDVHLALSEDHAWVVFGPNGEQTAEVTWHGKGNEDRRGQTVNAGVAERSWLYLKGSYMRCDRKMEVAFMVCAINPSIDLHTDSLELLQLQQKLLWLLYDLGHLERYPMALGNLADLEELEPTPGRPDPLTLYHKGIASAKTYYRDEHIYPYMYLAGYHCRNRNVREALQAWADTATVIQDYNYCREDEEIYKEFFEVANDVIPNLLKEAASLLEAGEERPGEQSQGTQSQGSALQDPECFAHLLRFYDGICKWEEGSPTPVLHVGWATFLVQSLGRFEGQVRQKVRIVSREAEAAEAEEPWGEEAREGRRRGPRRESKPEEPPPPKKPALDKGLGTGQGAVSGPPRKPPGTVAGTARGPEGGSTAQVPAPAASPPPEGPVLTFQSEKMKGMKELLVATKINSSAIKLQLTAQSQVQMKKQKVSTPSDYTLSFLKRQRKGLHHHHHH
Summary of the method: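 Read-out: TR-FRET ratio (FITC 520 nm / terbium 490 nm, ex. 337 nm) after 15 min with 75 nM FITC-MBM1 peptide. Test compound first sat 30 min with 200 pM Tb-menin 1-610-His, 0.5% DMSO, pH 7.5 Tris buffer. IC50 by Hill fit; values under 0.1 nM reported as 0.1 nM.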

Row | Compound | IC50 ([1]; Homo sapiens, MOLM-14, 192 h) [nM] | IC50 [2] [nM] | IC50 [1] [nM]
1 | CC(C)[C@H]([C@H]1C[C@@H](Nc2ccnc3[nH]c(=O)ccc23)C1)N1CC2(CCN(c3ncnnc3Oc3ccc(F)cc3-c3cncnc3C3CC3)C2)C1 (single isomer, unassigned) [Compound 420] | 290 | ~0.39 | 
2 | CC(C)[C@@H]([C@H]1C[C@@H](NC2CC2)C1)N1CC2(CCN(c3ncnnc3Oc3ccc(F)cc3-c3nnccc3C3CC3)C2)C1 (single isomer, unassigned) [Compound 272] | 21 | 0.1 | 
3 | CNC(=O)c1cnc(N[C@H]2C[C@@H]([C@@H](C(C)C)N3CC4(CCN(c5ncnnc5Oc5ccc(F)cc5-c5cnc(C)nc5C5CC5)C4)C3)C2)s1 (single isomer, unassigned) [Compound 417] | 1.8 | 0.05 | 
4 | CC(=O)N1CC2CN([C@H]3C[C@H]([C@H](C(C)C)N4CC5(CCN(c6ncnnc6Oc6ccc(F)cc6-c6cnc(C)nc6C6CC6)C5)C4)C3)CC2C1 (some centres unmarked) [Compound 376] | 100 | 0.62 | 
5 | CC(C)[C@H]([C@H]1C[C@@H](Nc2ccnc(NS(C)(=O)=O)n2)C1)N1CC2(CCN(c3ncnnc3Oc3ccc(F)cc3-c3cncnc3C3CC3)C2)C1 (single isomer, unassigned) [Compound 408] | 220 | 0.14 | 
6 | Cc1cn2ccc(N[C@H]3C[C@@H](C(C(C)C)N4CC5(CCN(c6ncnnc6Oc6ccc(F)cc6-c6cncnc6C6CC6)C5)C4)C3)cc2n1 (single isomer, unassigned) [Compound 426] | < 1.8 | 0.09 | 
7 | Cc1ncc(-c2cc(F)ccc2Oc2nncnc2N2CCC3(C2)CN([C@@H](C(C)C)[C@H]2C[C@@H](N4CCC5(COC5)C4)C2)C3)c(C2CC2)n1 [Compound 382] | 7 | 0.08 | 
8 | CC(=O)Nc1nccc(N[C@H]2C[C@@H]([C@@H](C(C)C)N3CC4(CCN(c5ncnnc5Oc5ccc(F)cc5-c5cncnc5C5CC5)C4)C3)C2)c1F (single isomer, unassigned) [Compound 429] | 3.3 | 0.17 | 
9 | CC(=O)N1CC2(CCN([C@H]3C[C@@H]([C@H](C(C)C)N4CC5(CCN(c6ncnnc6Oc6ccc(F)cc6-c6cnc(C)nc6C6CC6)C5)C4)C3)C2)C1 [Compound 381] | 8.1 | 0.14 | 
10 | CC(=O)Nc1cc(N[C@H]2C[C@@H](C(C(C)C)N3CC4(CCN(c5ncnnc5Oc5ccc(F)cc5-c5cncnc5C5CC5)C4)C3)C2)cnn1 (single isomer, unassigned) [Compound 414] | 21 | 0.1 | 
11 | CNC(=O)c1coc(N[C@H]2C[C@@H](C(C)N3CC4(CCN(c5ncnnc5Oc5ccc(F)cc5-c5cncnc5C5CC5)C4)C3)C2)n1 (single isomer, unassigned) [Compound 461] | 63 | 0.2 | 
12 | CC(C)[C@H]([C@H]1C[C@@H](Nc2ccc3[nH]c(=O)[nH]c3c2)C1)N1CC2(CCN(c3ncnnc3Oc3ccc(F)cc3-c3cncnc3C3CC3)C2)C1 (single isomer, unassigned) [Compound 462] | 89 | 0.27 | 
13 | Cc1cc(-c2cnnc(N[C@H]3C[C@@H]([C@@H](C(C)C)N4CC5(CCN(c6ncnnc6Oc6ccc(F)cc6-c6cncnc6C6CC6)C5)C4)C3)c2)[nH]n1 (single isomer, unassigned) [Compound 423] | 9 | 0.18 | 
14 | CC(C)[C@@H]([C@H]1C[C@@H](N2CCC3(CCO3)C2)C1)N1CC2(CCN(c3ncnnc3Oc3ccc(F)cc3-c3nnccc3C3CC3)C2)C1 (single isomer, unassigned) [Compound 268] | 6 | 0.1 | 
15 | CNC(=O)c1cnc(N[C@H]2C[C@@H]([C@H](C)N3CC4(CCN(c5ncnnc5Oc5ccc(F)cc5-c5cncnc5C5CC5)C4)C3)C2)s1 (single isomer, unassigned) [Compound 455] | 24 | 0.14 | 
16 | CNC(=O)c1oc(N[C@H]2C[C@@H](C(C(C)C)N3CC4(CCN(c5ncnnc5Oc5ccc(F)cc5-c5cncnc5C5CC5)C4)C3)C2)nc1C (single isomer, unassigned) [Compound 460] | 11 | 0.07 | 
17 | CCOC(=O)c1nnc(N[C@H]2C[C@@H](C(C(C)C)N3CC4(CCN(c5ncnnc5Oc5ccc(F)cc5-c5cncnc5C5CC5)C4)C3)C2)s1 (single isomer, unassigned) [Compound 482] | 15 | 0.18 | 
18 | CC(C)[C@H]([C@H]1C[C@@H](Nc2cc3nccn3cn2)C1)N1CC2(CCN(c3ncnnc3Oc3ccc(F)cc3-c3cncnc3C3CC3)C2)C1 (single isomer, unassigned) [Compound 433] | 2 | 0.15 | 
19 | Cc1ncc(-c2cc(F)ccc2Oc2nncnc2N2CCC3(C2)CN([C@@H](C(C)C)[C@H]2C[C@@H](N4CC5(CN(C(=O)C6(F)CC6)C5)C4)C2)C3)c(C2CC2)n1 [Compound 391] | < 1.8 | 0.057 | 
20 | CNC(=O)c1nnc(N[C@H]2C[C@@H]([C@@H](C(C)C)N3CC4(CCN(c5ncnnc5Oc5ccc(F)cc5-c5cncnc5C5CC5)C4)C3)C2)o1 (single isomer, unassigned) [Compound 439] | 25 | 0.39 | 
21 | CC(C)C([C@H]1C[C@@H](Nc2cccc(CN(C)C)n2)C1)N1CC2(CCN(c3ncnnc3Oc3ccc(F)cc3-c3cncnc3C3CC3)C2)C1 (single isomer, unassigned) [Compound 425] | 6 | 0.03 | 
22 | Cc1ncc(-c2cc(F)ccc2Oc2nncnc2N2CCC3(C2)CN([C@@H](C(C)C)[C@H]2C[C@@H](N4CC5(CN(C(=O)C6CC6)C5)C4)C2)C3)c(C2CC2)n1 [Compound 392] | 2 | 0.11 | 
23 | Cc1nnc(-c2cc(N[C@H]3C[C@@H]([C@@H](C(C)C)N4CC5(CCN(c6ncnnc6Oc6ccc(F)cc6-c6cncnc6C6CC6)C5)C4)C3)ccn2)[nH]1 (single isomer, unassigned) [Compound 430] | 3.4 | 0.11 | 
24 | CC(=O)N[C@H]1CCN([C@H]2C[C@@H]([C@H](C(C)C)N3CC4(CCN(c5ncnnc5Oc5ccc(F)cc5-c5cnc(C)nc5C5CC5)C4)C3)C2)C1 [Compound 388] | < 1.8 | 0.027 | 
25 | CC(C)[C@H]([C@H]1C[C@@H](Nc2ccn3ccnc3n2)C1)N1CC2(CCN(c3ncnnc3Oc3ccc(F)cc3-c3cncnc3C3CC3)C2)C1 (single isomer, unassigned) [Compound 412] | < 1.8 | 0.16 | 
26 | CC(=O)N1CC2CN([C@H]3C[C@@H]([C@H](C(C)C)N4CC5(CCN(c6ncnnc6Oc6ccc(F)cc6-c6cnc(C)nc6C6CC6)C5)C4)C3)CC2C1 (some centres unmarked) [Compound 375] |  | 0.055 | 4
27 | CC(C)C([C@H]1C[C@@H](Nc2cccc(CN3CCOCC3)n2)C1)N1CC2(CCN(c3ncnnc3Oc3ccc(F)cc3-c3cncnc3C3CC3)C2)C1 (single isomer, unassigned) [Compound 428] | 16 | 0.09 | 
28 | COC1(C)CCN([C@H]2C[C@@H]([C@H](C(C)C)N3CC4(CCN(c5ncnnc5Oc5ccc(F)cc5-c5nnccc5C5CC5)C4)C3)C2)C1 (mixture of isomers) [Compound 275] | 7 | 0.1 | 
